According to US20200197365A1, “TREATMENT WITH NMDA RECEPTOR MODULATORS” (Naurex Inc., priority 2017, published 2020):
Residues, ends and D or L forms follow the SMILES beside them.

Tested on: Male rats
Test: Sleep-wake cycle analysis by telemetric EEG recording (23 hours) in rats
Type: in vivo, rat
Conditions: for latency to SWS onset (change): FIG. 1A; for latency to REM sleep onset (change): FIG. 1B
Description: Male rats were anesthetized and surgically implanted with 2 surface electrodes in the frontoparietal cortex and 2 depth electrodes in the CA1 region of the hippocampus (AP+5.0 mm, L±2.5 mm, V+7.0 mm). After ≥10 days recovery, telemetric transmitters were connected to electrodes for electroencephalographic (EEG) recordings. On the day of experiment, rats were injected at the beginning of the light phase with rapastinel (3, 10, or 30 mg/kg, IV), ketamine (30 mg/kg, IP), or the positive control zolpidem (12 mg/kg, PO) using a treatment schedule based on a cross-over design (n=9-10/dose/group) in which rats received zolpidem or rapastinel at session 1 and then rapastinel and/or ketamine at sessions 2-4. Physiological saline was used as the vehicle control
Sleep-wake cycles were measured continuously following rapastinel treatment for the next 23 hours and were analyzed based on a spectral power analysis. Latencies to first occurrence of SWS and REM sleep, as well as percent time spent in SWS, REM sleep, and wakefulness, were calculated for the total recording sessions (23 hours), the half cycles (0-12 and 12-23 hours), and 5 time segments (0-4, 4-8, 8-12, 12-18, and 18-23 hours). Depth of SWS (defined as the ratio between alpha and delta spectral power) was also calculated. Differences between vehicle and test drugs were calculated for all variables, for each animal, and for the means of the animals per treatment group, and analyzed using a paired t-test

[1] = rapastinel, entire recording session, FIG. 2
[2] = ketamine 30 mg/kg IP, 12-23 hours post-dose, P<0.05

C[C@@H](O)[C@H](N)C(=O)N1CCC[C@H]1C(=O)N1CCC[C@H]1C(=O)N[C@H](C(N)=O)[C@@H](C)O [Rapastinel, rapastinel] (H-TPPT-NH2)
latency to SWS onset (change) (rapastinel 3 mg/kg IV, P<0.05): −33%
percentage of active waking (rapastinel 30 mg/kg IV, 8-12 hours post-dose, P<0.01): small but significant decrease
percentage of active waking (rapastinel 30 mg/kg IV, 18-23 hours post-dose, P<0.05): small but significant decrease
latency to REM sleep onset (rapastinel 3, 10, and 30 mg/kg IV): no significant effect
duration of REM sleep (rapastinel 3, 10, and 30 mg/kg IV, FIG. 3): did not have a significant effect
duration of waking (rapastinel 3, 10, or 30 mg/kg IV, FIG. 4A): no effect
latency to SWS onset (rapastinel 10 and 30 mg/kg IV): no significant effect
percentage of active waking (rapastinel, all doses and time segments other than the 30 mg/kg exceptions, FIG. 4B): no effect
depth of SWS [1]: no significant effect
duration of SWS [1]: no significant effect

Cc1ccc(-c2nc3ccc(C)cn3c2CC(=O)N(C)C)cc1 [Zolpidem, zolpidem]
percentage of active waking (zolpidem 12 mg/kg PO, 0-12 hours post-dose, P<0.05): significantly decreased
duration of REM sleep (zolpidem 12 mg/kg PO, 4-8 hours post-dose, P<0.05): significantly decreased
depth of SWS (zolpidem 12 mg/kg PO, >8 hours post-dose, P<0.05, FIG. 2B): significantly increased
duration of waking (zolpidem 12 mg/kg PO, FIG. 4A): no effect
latency to REM sleep onset (change) (zolpidem 12 mg/kg PO, P<0.01): +67%
latency to SWS onset (change) (zolpidem 12 mg/kg PO, P<0.05): −50%

CNC1(c2ccccc2Cl)CCCCC1=O (centres unmarked) [Ketamine, ketamine]
alpha/delta ratio (depth of SWS) (ketamine 30 mg/kg IP, 0-4 hours post-dose): concomitant decrease
duration of SWS (ketamine 30 mg/kg IP, 0-4 hours post-dose, FIG. 2A): decreased
duration of REM sleep (ketamine 30 mg/kg IP, 0-4 hours post-dose, P<0.001): decreased
waking (duration) (ketamine 30 mg/kg IP, 12-23 hours post-dose, P<0.01): small but significant decrease
REM sleep (duration) [2]: compensatory increase
SWS duration [2]: significantly increased
percentage of active waking [2]: significantly decreased
latency to SWS onset (change) (ketamine 30 mg/kg IP, P<0.001): +393%
latency to REM sleep onset (change) (ketamine 30 mg/kg IP, P<0.001): +104%
duration of waking (ketamine 30 mg/kg IP, first 4 hours post-dose, P<0.001): significantly increased
